# Assay results published in paper PMC3906059, “Activation and Inhibition of TMEM16A Calcium-Activated Chloride Channels” (PLoS ONE, 2014).
# Where two headings read alike, the source gives them in different places.
# Key:
# TMEM16A (ANO1) [1] = molecular target: T1, TMEM16A (ANO1) (Mus musculus, UniProt Q8BHY3); assay: NFA inhibition of ANO1 current, intracellular application to inside-out patch; assay type: cell-based
# T1 construct: We subcloned the coding region of the cDNA into pEGFP-N3 vector; expressed in transfected cells; host or cells: HEK293 cells
# T1 sequence (Q8BHY3 1-956 isoform Q8BHY3-2): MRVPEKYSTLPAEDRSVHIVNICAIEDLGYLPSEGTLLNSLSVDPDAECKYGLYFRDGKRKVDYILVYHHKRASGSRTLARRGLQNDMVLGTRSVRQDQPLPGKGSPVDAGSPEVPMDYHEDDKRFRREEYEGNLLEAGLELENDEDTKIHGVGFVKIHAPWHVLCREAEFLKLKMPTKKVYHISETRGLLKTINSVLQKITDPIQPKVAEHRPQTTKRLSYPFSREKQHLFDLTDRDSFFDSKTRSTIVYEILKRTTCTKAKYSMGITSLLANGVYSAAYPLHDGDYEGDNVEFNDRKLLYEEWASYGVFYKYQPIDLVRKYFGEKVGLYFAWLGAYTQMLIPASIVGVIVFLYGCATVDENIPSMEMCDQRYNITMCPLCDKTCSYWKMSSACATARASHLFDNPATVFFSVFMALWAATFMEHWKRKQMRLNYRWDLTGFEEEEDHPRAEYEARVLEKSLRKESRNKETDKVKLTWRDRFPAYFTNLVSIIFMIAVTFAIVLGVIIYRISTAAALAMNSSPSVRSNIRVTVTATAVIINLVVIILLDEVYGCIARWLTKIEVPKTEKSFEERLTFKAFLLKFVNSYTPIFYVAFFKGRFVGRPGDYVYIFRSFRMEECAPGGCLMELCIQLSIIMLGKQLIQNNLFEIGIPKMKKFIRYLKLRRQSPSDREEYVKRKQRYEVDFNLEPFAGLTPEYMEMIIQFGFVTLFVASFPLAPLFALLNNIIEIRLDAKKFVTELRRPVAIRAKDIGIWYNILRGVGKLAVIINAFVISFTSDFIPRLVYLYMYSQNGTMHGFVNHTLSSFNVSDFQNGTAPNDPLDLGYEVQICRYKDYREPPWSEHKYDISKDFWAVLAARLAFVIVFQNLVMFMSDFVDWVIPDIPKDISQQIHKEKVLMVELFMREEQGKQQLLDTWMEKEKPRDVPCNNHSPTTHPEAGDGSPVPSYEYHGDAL
# Source text: (§1) The mouse TMEM16A cDNA (NCBI reference sequence: NM_001242349.1) encoding ANO1 CaCC was a generous gift from Dr. Lily Jan. We subcloned the coding region of the cDNA into pEGFP-N3 vector (Clontech Laboratories, Inc.), resulting in a construct in which an enhanced green fluorescent protein (eGFP) was attached to the C-terminus of the ANO1 protein. The sequence was confirmed by commercially-available DNA sequencing service. This eGFP-attached ANO1 cDNA construct was used for channel expression throughout the study. The cDNA was transfected into human embryonic kidney (HEK) 293 cells using lipofectamine transfection methods, [42], [43]. A fluorescent light source and a GFP filter set (Chroma Technology Co.) in the DM IRB inverted microscope (Leica Microsystems) were used to identify transfected cells expressing channel proteins. Electrophysiological experiments were performed ∼24 to 72 hours after transfection.
# (§2) All chemicals were reagent grade. Regular salts (such as NaCl, NaOH, CaCl2, SrCl2, BaCl2, MgCl2 or sodium salts of various anions) were purchased from Fisher Chemicals (Fair Lawn, NJ), J. T. Baker (Phillipsburg, NJ) or Sigma Chemicals Co. (St. Louis, MO). EGTA, HEPES, and NFA were from Sigma Chemicals Co. Excised inside-out patch-clamp recordings were performed throughout the study. The extracellular (pipette) solution in all experiments contained: 140 mM NaCl, 10 mM HEPES, 0.1 mM EGTA, pH = 7.4. The regular intracellular solution contained 10 mM HEPES and 140 mM sodium salt of Cl^− or other anions. Various concentrations of divalent cations were made by adding certain total concentrations of divalent cations (Cl^− salts) into the solution containing a defined concentration of EGTA. We defined the pipette solution as the “zero-Ca^2+” solution. A solution containing a saturating [Ca^2+] was made by adding 0.12 mM total [Ca^2+] into the aforementioned zero-Ca^2+ solution, resulting in a solution containing ∼20 µM free [Ca^2+]. For making non-saturating [Ca^2+] solutions, the solutions included 1 mM EGTA. To make solutions containing Sr^2+ and Ba^2+, only 0.1 mM EGTA was used. The pH of all solutions was adjusted to 7.4.
# The inhibition of ANO1 by intracellular NFA was achieved by directly applying NFA to the intracellular side of the membrane patch using fast-solution exchange. Except where indicated, the ANO1 current was induced by saturating [Ca^2+] followed by the application of various [NFA] in the solution containing the same [Ca^2+]. The steady-state current (I) at the end of NFA application was divided by the current in the absence of NFA (I0) before and after the drug application to obtain the percentage of current remained in the presence of NFA.
# For dose-response inhibition by NFA, the current (I) measured at the end of the NFA application was normalized to the current amplitude in the absence of NFA (I0). The ratio I/I0 was then plotted against [NFA], and the concentration-dependent inhibition curve was fitted to a Langmuir function (eq. 2), I/I0 = 1/(1+ [NFA]/K1/2), where K1/2 is the half-inhibition [NFA].
# For comparing two treatments that might differentially affect the apparent affinity of the NFA inhibition (for example, Fig. 8 C & D), the summation of the residual error (namely, the residual sum of squares of the error) from the curve fitting of each treatment was compared to the residual error from the curve fitting of the pooled data. If the former was statistically smaller than the latter using F test, the two regression curves would be considered different. The statistically significant level (α) was set at 0.05.
# TMEM16A (ANO1) [2] = molecular target: T1, TMEM16A (ANO1); assay: as above; assay type: cell-based; remark: listed apart in the source
# CaCC of Xenopus oocytes = test system: CaCC of Xenopus oocytes; parameters: method as in PMID 11279188; conditions: cited from earlier work
# TMEM16A = conditions: cited from earlier work
# TMEM16A (ANO1) [3] = molecular target: T1, TMEM16A (ANO1); assay: Activation of ANO1 current by divalent cations, excised inside-out patch with fast solution exchange; assay type: cell-based
# Source text: as §1, §2
# Because of weak Mg^2+-EGTA binding, we referred the total [Mg^2+] as the free [Mg^2+]. The free [Ca^2+], [Sr^2+], and [Ba^2+] were calculated using the MaxChelator program (Ver1.2) kindly provided by Chris Patton from the Stanford University. This program was developed based on the binding constants available in the National Institute of Standard and Technology (NIST) between EGTA and these three divalent cations. Table S1, Table S2, and Table S3 list respectively the calculated free [Ca^2+], [Sr^2+], and [Ba^2+] used in this study. All added divalent cations were Cl^− salts. […] For example, in a solution containing 5 mM, 10 mM or 30 mM MgCl2, only 130 mM, 120 mM or 80 mM of NaCl, respectively, were added to the solution.
# The patch-clamp recording pipettes were fabricated from borosilicate glass capillaries (World Precision Instruments) using PP830 electrode puller (Narishige International). When filled with the pipette solution, the electrode resistance was ∼1.5–3 MΩ. The experiments were carried out at room temperature (20–23°C) using the Axopatch 200B amplifier controlled by the Digidata I/O converter and the pClamp9 software (Axon Instruments/Molecular Devices).
# Solution exchange was achieved using the SF-77 solution exchanger (Warner Instruments). After the excised inside-out patch mode was established, the tip of the patch pipette was positioned at the exit of the solution-delivery pipes of the SF-77 solution exchanger. The switch of solution pipes was controlled by a digital signal delivered from the Digidata 1320 digitizing board. […]
compound,measurement,setting,value
"O=C(O)c1cccnc1Nc1cccc(C(F)(F)F)c1 [NFA, niflumic acid]",effect of NFA on sensitivity of ANO1 to Ca^2+ activation,"TMEM16A (ANO1) [1]; 20 µM NFA, current induced by 666 nM Ca^2+ at ±40 mV",not reduced
same,IC50,"TMEM16A (ANO1) [1]; 140 mM intracellular NaBr, pipette 140 mM Cl^−, read-out: K1/2 of NFA inhibition",39.2 ± 1.1 µM
same,IC50,"TMEM16A (ANO1) [1]; 140 mM intracellular NaCl, pipette 140 mM Cl^−, read-out: K1/2 of NFA inhibition",17.9 ± 1.1 µM
same,IC50,"TMEM16A (ANO1) [1]; 140 mM intracellular NaI, pipette 140 mM Cl^−, read-out: K1/2 of NFA inhibition",85.5 ± 3.6 µM
same,IC50,"TMEM16A (ANO1) [1]; 140 mM intracellular NaNO3, pipette 140 mM Cl^−, read-out: K1/2 of NFA inhibition",54.8 ± 3.4 µM
same,IC50,"TMEM16A (ANO1) [1]; 140 mM intracellular NaSCN, pipette 140 mM Cl^−, read-out: K1/2 of NFA inhibition",189 ± 7.4 µM
same,voltage dependence of K1/2 of NFA inhibition,TMEM16A (ANO1) [1]; between −40 mV and +40 mV,not voltage dependent
same,IC50,"TMEM16A (ANO1) [1]; current activated by 404 µM [Ba^2+], Vm = −20 mV, read-out: K1/2 of NFA inhibition",22.6 µM
same,IC50,"TMEM16A (ANO1) [1]; current induced by 20 µM Ca^2+, −40, −20, +20, +40 mV, read-out: half-blocking concentration (K1/2) of NFA",18 to 20 µM
same,IC50,"TMEM16A (ANO1) [1]; symmetrical 140 mM NaCl, −40 mV, read-out: K1/2 of NFA inhibition",18.4 µM
same,IC50,"TMEM16A (ANO1) [2]; symmetrical 4 mM NaCl (136 mM Na-Glutamate added), −40 mV, read-out: K1/2 of NFA inhibition",7.9 µM
same,increase of apparent affinity of NFA inhibition in 4 mM [Cl^−] compared with 140 mM [Cl^−],TMEM16A (ANO1) [2]; symmetrical solutions,more than 2 fold
same,sideness of the block,CaCC of Xenopus oocytes,from intracellular and extracellular sides with similar affinities
[Ca+2] [Ca^2+],EC50,"TMEM16A; +80 mV, read-out: K1/2,Ca",0.063 µM
same,EC50,"TMEM16A; −60 mV, lower end of literature range, read-out: half-effective concentration of Ca^2+ (K1/2,Ca)",< 0.1 µM
same,EC50,"TMEM16A; −60 mV, upper end of literature range, read-out: half-effective concentration of Ca^2+ (K1/2,Ca)",> 2 µM
same,"difference of K1/2,Ca between +40 mV and −40 mV",TMEM16A (ANO1) [3],100 nM
same,fraction of saturated current activated,"TMEM16A (ANO1) [3]; 666 nM [Ca^2+], ±40 mV, in the presence or absence of 20 µM NFA",~90%
same,EC50,"TMEM16A (ANO1) [3]; +40 mV, fit to Hill equation (eq. 1), normalized to Is induced by 20 µM free Ca^2+, read-out: half-activation [Ca^2+] (K1/2,Ca)",0.466 µM
same,maximal ANO1 current activated by saturating divalent cation compared with Is induced by saturating [Ca^2+],"TMEM16A (ANO1) [3]; Is induced by 20 µM Ca^2+, ±40 mV",activated the channel to the same maximal current level
same,Hill coefficient (n) of dose-response activation curve,TMEM16A (ANO1) [3]; values covering +40 and −40 mV,~4
same,EC50,"TMEM16A (ANO1) [3]; values covering +40 and −40 mV, read-out: K1/2 of ANO1 activation",~0.5 µM
